According to patent publication US20120244567A1, “HUMAN EMBRYONIC STEM CELLS FOR HIGH THROUGHOUT DRUG SCREENING” (BUCK INSTITUTE FOR RESEARCH ON AGING, priority 2009, published 2012):
Where a name gives a salt, the structure may show the parent alone.

Tests used:
[1] = tested on: hESCs and hESC-derived NSCs; assay: Comparative ATP screening on hESCs and hESC-derived NSCs (ratio ESC/NSC or NSC/ESC); design: hit class in primary screen / ESC/NSC: dose or concentration left out as unconfirmed; settings: NINDS primary screen, ATP relative to DMSO controls
Text: Hits were defined based on the ability of a compound to affect ATP levels relative to DMSO controls on each plate.

[2] = tested on: human fetal-derived astrocytes; assay: Effect on human astrocytes (cell death); type: cell-based; settings: up to 48 hours after treatment
Text: Media was changed every other day and cells were passaged once a week at a 1:4 ratio.

`CCCCc1oc2ccccc2c1C(=O)c1cc(I)c(OCCN(CC)CC)c(I)c1` [Amiodarone Hydrochloride] was tested, and the “hit class in primary screen” value [1] was “NSC Killers” and the astrocyte cell death [2] was “did not cause astrocyte cell death”.
